Key:
rat ER-β = target: T1, rat ER-β (Rattus norvegicus, UniProt Q62986); experiment: Transactivation assay (agonist and antagonist modes), HEK-293 cells, ERE-LUC; format: cell-based
T1 construct: expressed in transfected cells; host or cells: HEK-293

[1] = system: morphine dependent rat model; experiment: Morphine dependent rat model of hot flashes (tail skin temperature); format: in vivo; conditions: 5, 10, 15 and 30 mg/kg (FIG. 13)
Description: In addition to the similarities to the human condition, this experimental animal model has a short turn around time which makes it a useful high throughput screening tool for identifying compounds that can alleviate vasomotor symptoms using the tail skin temperature (TST). TST probes TA-40 (Data Sciences International, MN) were taped to the base of the tails and baseline temperatures were obtained for 15 minutes. After 15 minutes the animals were treated with naloxone (1 mg/kg, SQ) to reverse the effects of the morphine. Tail skin temperature (TST) was measured for one hour post-naloxone treatment with a sampling frequency of 5 secs throughout the course of the experiment. Following the data acquisition, the moving average of the temperature recorded every 60 seconds for each animal was calculated and further analyzed. Baseline temperature was computed as the average temperature acquired over the 15 minutes preceding naloxone administration. The area under the curve (AUC) was calculated by subtracting all the values post-naloxone administration from the baseline using a linear trapezoid method.

intact and ORX rats = experiment: Prostate size in intact and ORX rats, Compound IV versus DES; format: in vivo, rat; conditions: rats (FIG. 11)
[2] = system: sexually mature male cynomolgus monkeys; experiment: 39-week oral pharmacology and toxicology study in male cynomolgus monkeys (13-week interim); format: in vivo, cynomolgus monkey
healthy human subjects = experiment: Single and multiple dose studies in healthy human subjects; format: in vivo; conditions: for Subjects with decreased total testosterone levels: multiple doses
Description: There were observations of elevated ALT levels above the upper limit of normal in four subjects in the multiple dose study (3 subjects in the 1000 mg group and 1 subject in the 600 mg group). The highest single observed value of ALT was 129 IU/L or 2.6 times the upper limit of normal. Aspartate aminotransferase levels were also elevated in this subject to 1.9 times the upper limit of normal.
Serum total testosterone levels were assessed throughout the multiple doses study. Total testosterone levels were decreased in 100% (10/10) of the subjects in the 600 mg dose group and 90% (9/10) of the subjects in the […] dose group. The levels of total testosterone were decreased to below the lower limit of normal in 40% (4/10) of the subjects in the 600 mg dose group and 50% (5/10) of the subjects in the 1000 mg dose group.

[3] = Preliminary oral pharmacokinetics in monkeys; format: in vivo, monkey; conditions: preliminary pharmacokinetic studies
Description: Formulations using polyethylene glycol 300 (PEG300) generally produced higher exposures than microemulsions prepared in Tween 80 diluted in deionized water. […] Importantly, in dogs the exposure in the male 30 mg/kg PEG300 oral dose group exceeded the exposure necessary to produce the maximal effect on prostate reduction in the rat model of LH suppression.

rats = experiment: Single and repeated oral dose toxicity in rats (up to 28 days); format: in vivo, rat
Description: Compound IV was well-tolerated by rats and dogs after single and repeated oral administration (up to 28 days).

[4] = system: healthy young male volunteers; experiment: Study 1: 56 day proof of concept study in healthy young male volunteers (600, 1000, 1500 mg); format: in vivo, human; conditions: for BSAP change / FSH change / Free testosterone change / Osteocalcin change / SHBG change / Total testosterone change / serum PSA change: castrated subjects
Description: A 56 day, proof of concept study of Compound IV was conducted in healthy young male volunteers. (Table 22 and Table 23 below). […] The free testosterone levels were reduced to levels below the levels expected from surgical castration or those expected from chemical castration with LHRH agonists or antagonists. This is due to a dose dependent increase in sex hormone binding globulin (SHBG) that is observed with Compound IV.

[5] = system: treatment naïve prostate cancer patients; experiment: Study 5: loading dose study (1000 mg BID, 1500 mg BID) in treatment naïve prostate cancer patients; format: in vivo; conditions: for Castration (%): patients receiving >14 days; for Subjects that reached castrate levels of serum total testosterone: subjects that had reached Day 28
Description: Another study (Study 5) to assess 1000 mg twice per day and 1500 mg twice daily loading doses of Compound IV for 28 days was conducted. Subjects that were castrate on Day 28 received either 1000 mg or 2000 mg Compound IV daily to maintain the castration.
Thirty (30) and 28 subjects were randomized to the 1500 mg BID and 1000 mg BID loading doses, respectively. Among the subjects that had reached Day 28, 90% (18/20) of the subjects in the 1500 mg BID dose group and 94% (17/18) of the subjects in the 1000 mg BID dose group had reached castrate levels of serum total testosterone. During this study, two (2) subjects in the 1500 mg BID dose group experienced a VTE, including one fatal pulmonary embolus (PE) and three (3) subjects in the 1000 mg BID dose group experienced a VTE. See FIG. 26 for an overview of all the clinical studies on Compound IV.

rat ER-α = rat ER-α (Rattus norvegicus, UniProt P06211)
[6] = 600 mg, sufficiently compliant subjects
[7] = 1000 mg, sufficiently compliant subjects
[8] = 1500 mg, sufficiently compliant subjects

Chain of rat ER-α (P06211 whole entry): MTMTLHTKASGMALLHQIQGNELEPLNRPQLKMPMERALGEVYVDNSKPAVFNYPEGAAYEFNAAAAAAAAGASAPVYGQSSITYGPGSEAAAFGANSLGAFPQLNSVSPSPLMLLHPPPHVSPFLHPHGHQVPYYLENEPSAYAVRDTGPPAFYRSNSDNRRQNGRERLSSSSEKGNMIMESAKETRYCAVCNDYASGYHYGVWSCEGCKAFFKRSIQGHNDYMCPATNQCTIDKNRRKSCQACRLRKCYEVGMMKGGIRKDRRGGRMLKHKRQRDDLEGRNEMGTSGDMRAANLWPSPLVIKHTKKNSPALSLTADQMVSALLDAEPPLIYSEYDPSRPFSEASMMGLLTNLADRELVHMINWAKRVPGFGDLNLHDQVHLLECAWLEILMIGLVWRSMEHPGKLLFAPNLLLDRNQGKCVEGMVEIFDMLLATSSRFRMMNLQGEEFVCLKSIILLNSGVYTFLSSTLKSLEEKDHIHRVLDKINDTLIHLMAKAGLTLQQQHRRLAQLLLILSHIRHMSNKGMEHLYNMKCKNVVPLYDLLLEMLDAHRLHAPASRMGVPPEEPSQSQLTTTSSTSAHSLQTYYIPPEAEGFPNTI
T1 sequence (Q62986 whole entry): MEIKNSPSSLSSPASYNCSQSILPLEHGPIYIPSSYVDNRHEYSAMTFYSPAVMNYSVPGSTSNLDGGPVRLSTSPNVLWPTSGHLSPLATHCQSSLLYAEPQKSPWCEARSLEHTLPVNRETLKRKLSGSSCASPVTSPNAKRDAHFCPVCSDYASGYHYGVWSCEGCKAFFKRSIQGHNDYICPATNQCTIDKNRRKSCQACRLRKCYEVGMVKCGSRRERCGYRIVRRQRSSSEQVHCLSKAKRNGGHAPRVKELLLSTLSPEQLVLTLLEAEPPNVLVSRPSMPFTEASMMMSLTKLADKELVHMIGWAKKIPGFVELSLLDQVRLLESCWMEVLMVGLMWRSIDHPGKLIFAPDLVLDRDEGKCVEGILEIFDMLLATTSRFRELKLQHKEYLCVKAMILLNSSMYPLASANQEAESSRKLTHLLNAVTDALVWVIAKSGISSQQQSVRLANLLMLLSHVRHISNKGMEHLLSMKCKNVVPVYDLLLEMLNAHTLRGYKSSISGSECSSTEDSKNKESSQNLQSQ

O=C(c1ccc(O)c(F)c1)N(c1ccc(O)cc1)c1ccc(F)cc1 [Compound IV, 3-fluoro-N-(4-fluorophenyl)-4-hydroxy-N-(4-hydroxyphenyl)benzamide]
Fold less potency to stimulate ERβ-mediated transcription compared to estradiol (rat ER-β): ~1400 fold | Effect on hot flashes (tail skin temperature after naloxone) [1]: attenuated hot flashes | Reduction of prostate size (intact and ORX rats): as effective as DES | Monkeys with testosterone below the limit of quantification ([2]; 100 mg/kg/day oral, after 90 days, Group 4): 6 of 10 | Initial testosterone flare ([2]; any Compound IV dose, up to 100 mg/kg/day): not observed | Subjects with total testosterone below the lower limit of normal (healthy human subjects; 600 mg dose group): 40% | Subjects with decreased total testosterone levels (healthy human subjects; 600 mg dose group): 100% | Subjects with decreased total testosterone levels (healthy human subjects; 997 mg dose group): 90% | Subjects with total testosterone below the lower limit of normal (healthy human subjects; 1000 mg dose group): 50% | Time for total testosterone to return to normal after discontinuation (healthy human subjects; all subjects): ≤ 6 days | Elevations in total bilirubin (healthy human subjects; any subject in the trial): no observations of elevations | Well tolerated single doses (healthy human subjects; healthy human subjects): up to 1247 mg | Well tolerated multiple doses (healthy human subjects; healthy human subjects, up to 10 days): up to 997 mg | Aspartate aminotransferase elevation in the same subject (healthy human subjects; multiple dose study): 1.9 times the upper limit of normal | Subjects with ALT above the upper limit of normal (healthy human subjects; multiple dose study, 600 mg group): 1 subject | Subjects with ALT above the upper limit of normal (healthy human subjects; multiple dose study, 1000 mg group): 3 subjects | Subjects with total testosterone below 1.73 nmol/L (castrate range) (healthy human subjects; multiple doses study): no subject | Oral bioavailability [3]: approximates or exceeds that in dogs | Tolerability after single and repeated oral administration (rats): well-tolerated | % subjects castrated [4, 6]: 0% ^ | BSAP % change from baseline to final observation [4, 6]: −18.7 ± 18.8% | FSH % change from baseline to final observation [4, 6]: −48.4 ± 53.9% | Free testosterone % change from baseline to final observation [4, 6]: −32.9 ± 43.2% | Osteocalcin % change from baseline to final observation [4, 6]: −32.8 ± 11.1% | SHBG % change from baseline to final observation [4, 6]: +363 ± 139% | Total testosterone % change from baseline to final observation [4, 6]: +22.1 ± 51.9% | serum PSA % change from baseline to final observation [4, 6]: −43.8 ± 21.1% | BSAP change ([4]; 1000 mg): 6.0 ± 29% | FSH change ([4]; 1000 mg): −91 ± 5.2% | Free testosterone change ([4]; 1000 mg): −98.2 ± 0.146% | Osteocalcin change ([4]; 1000 mg): −20 ± 15% | SHBG change ([4]; 1000 mg): 471 ± 102% | Total testosterone change ([4]; 1000 mg): −94.7 ± 0.228% | serum PSA change ([4]; 1000 mg): −52 ± 28% | % subjects castrated [4, 7]: 75% ^ | BSAP % change from baseline to final observation [4, 7]: −5.97 ± 31.6% | FSH % change from baseline to final observation [4, 7]: −78.4 ± 29.4% | Free testosterone % change from baseline to final observation [4, 7]: −86.4 ± 26.4% | Osteocalcin % change from baseline to final observation [4, 7]: −21.4 ± 14.4% | SHBG % change from baseline to final observation [4, 7]: +446 ± 130% | Total testosterone % change from baseline to final observation [4, 7]: −63.0 ± 59.9% | serum PSA % change from baseline to final observation [4, 7]: −42.8 ± 30.2% | Subjects that reached castrate levels of total testosterone ([4]; 1500 mg dose group, by Day 28, sufficiently compliant subjects): 90% | BSAP change ([4]; 1500 mg): −19 ± 21% | FSH change ([4]; 1500 mg): −88 ± 4.8% | Free testosterone change ([4]; 1500 mg): −97.7 ± 0.155% | Osteocalcin change ([4]; 1500 mg): −23 ± 17% | SHBG change ([4]; 1500 mg): 524 ± 212% | Total testosterone change ([4]; 1500 mg): −92.8 ± 0.65% | serum PSA change ([4]; 1500 mg): −43 ± 24% | % subjects castrated [4, 8]: 92% ^ | BSAP % change from baseline to final observation [4, 8]: −21.1 ± 17.0% | FSH % change from baseline to final observation [4, 8]: −89.7 ± 5.07% | Free testosterone % change from baseline to final observation [4, 8]: −97.5 ± 1.64% | Osteocalcin % change from baseline to final observation [4, 8]: −18.2 ± 18.7% | SHBG % change from baseline to final observation [4, 8]: +591 ± 258% | Total testosterone % change from baseline to final observation [4, 8]: −90.6 ± 9.67% | serum PSA % change from baseline to final observation [4, 8]: −48.1 ± 17.0% | SHBG increase over baseline ([4]; each dose arm (600, 1000, 1500 mg), Study 1): 300-600% | Subjects that experienced a VTE ([5]; 1000 mg BID dose group): 3 subjects | Castration (%) ([5]; 1000 mg BID, D28): 84.2% | Castration (%) ([5]; 1000 mg BID, Ever): 90% | Subjects that reached castrate levels of serum total testosterone ([5]; 1000 mg BID): 94% | Subjects that experienced a VTE ([5]; 1500 mg BID dose group, including one fatal pulmonary embolus): 2 subjects | Castration (%) ([5]; 1500 mg BID, D28): 85.7% | Castration (%) ([5]; 1500 mg BID, Ever): 95.2% | Subjects that reached castrate levels of serum total testosterone ([5]; 1500 mg BID): 90% | Antagonist effects on estradiol-stimulated transcriptional activation (rat ER-α; estradiol 1 nM, Compound IV up to 10 μM): no antagonist effects were observed | Relative selectivity in transactivation potency for ERα over ERβ (rat ER-α; normalized to estradiol values): 16 fold

Reference: patent US9624161B2 (priority 2009, dated 2017)
